Results taken from patent publication US20220324865A1 (Bayer Aktiengesellschaft, priority 2018, published 2022).
Counter-ions that a name gives are not always drawn.

What follows are compounds tested against T1, human EP3 receptor (Homo sapiens, UniProt P43115) (assay: Cellular in vitro assay for determining EP3 receptor activity (human EP3 cell line, sulprostone-stimulated calcium luminescence)). Conditions: CHO cells expressing human EP3 and mitochondrial Clytin; antagonist mode, sulprostone at EC50; read-out: EP3 CHO mtCLY ANTAG IC50.
T1 construct: expressed in transfected cells; host or cells: CHO K1 (Chinese Hamster Ovary), stably co-transfected with Galpha16 and mitochondrial clytin
T1 sequence (P43115 1-390): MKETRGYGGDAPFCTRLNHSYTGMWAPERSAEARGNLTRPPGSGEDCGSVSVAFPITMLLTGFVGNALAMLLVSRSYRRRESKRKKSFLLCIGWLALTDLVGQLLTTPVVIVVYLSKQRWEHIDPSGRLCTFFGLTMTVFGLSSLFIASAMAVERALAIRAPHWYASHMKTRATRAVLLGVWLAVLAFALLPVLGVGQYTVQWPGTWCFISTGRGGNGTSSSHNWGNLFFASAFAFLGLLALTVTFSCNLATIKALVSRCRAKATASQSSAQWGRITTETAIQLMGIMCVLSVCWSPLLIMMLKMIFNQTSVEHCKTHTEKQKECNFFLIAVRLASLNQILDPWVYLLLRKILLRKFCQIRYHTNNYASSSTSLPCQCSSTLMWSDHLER
Assay type: cell-based
In short: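 Antagonist activity was measured as inhibition of the luminescent calcium signal elicited by EC50 sulprostone, following 10 min compound pretreatment. The cell line was recombinant CHO K1 co-expressing human EP3, Gα16 and the photoprotein Clytin, reconstituted with coelenterazine.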

SMILES	IC50 [nM]
O=C(NC1CCCc2ccccc21)c1cc2c(=O)[nH]c(-c3ccc4ccccc4c3)cn2n1 (stereo not shown) [Example 2-32, 6-(2-Naphthyl)-4-oxo-N-[1,2,3,4-tetrahydronaphthalin-1-yl]-4,5-dihydropyrazolo[1,5-a]pyrazine-2-carboxamide]	2.8
O=C(NC(CN1CCCC1)c1ccc(F)cc1)c1cc2c(=O)[nH]c(-c3ccc4ccccc4c3)cn2n1 (stereo not shown) [Example 1-44, N-[1-(4-Fluorophenyl)-2-(pyrrolidin-1-yl)ethyl]-6-(2-naphthyl)-4-oxo-5H-pyrazolo[1,5-a]pyrazine-2-carboxamide]	8.97
CC(NC(=O)c1cc2c(=O)[nH]c(-c3ccc4ccccc4c3)cn2n1)c1ccc(Cl)c(Cl)c1 (stereo not shown) [Example 2-36, N-[1-(3,4-Dichlorphenyl)ethyl]-6-(2-naphthyl)-4-oxo-4,5-dihydropyrazolo[1,5-a]pyrazine-2-carboxamide]	2.8
CN1CC(NC(=O)c2cc3c(=O)[nH]c(-c4ccc5c(c4)CCC5)cn3n2)(c2ccc(F)cc2)C1 [Example 1-96, 6-(2,3-Dihydro-1H-inden-5-yl)-N-[3-(4-fluorophenyl)-1-methylazetidin-3-yl]-4-oxo-4,5-dihydropyrazolo[1,5-a]pyrazine-2-carboxamide]	2.65
Cc1c(C(=O)NC2(c3ccccc3)CC2)nn2c(C)c(-c3ccc4ccccc4c3)[nH]c(=O)c12 [Example 3-25, 3,7-Dimethyl-6-(naphthalen-2-yl)-4-oxo-N-(1-phenylcyclopropyl)-4,5-dihydropyrazolo[1,5-a]pyrazine-2-carboxamide]	2.4
N#Cc1c(C(=O)N[C@H](CCO)c2ccc(F)cc2)nn2cc(-c3ccc4ccccc4c3)[nH]c(=O)c12 [Example 1-71, 3-Cyano-N-[(1R)-1-(4-fluorophenyl)-3-hydroxypropyl]-6-(naphthalen-2-yl)-4-oxo-4,5-dihydropyrazolo[1,5-a]pyrazine-2-carboxamide]	1.45
CCC1(NC(=O)c2cc3c(=O)[nH]c(-c4ccc5ccccc5c4)cn3n2)CN(C(=O)OC(C)(C)C)C1 [Example 1-5, tert.-Butyl 3-ethyl-3-({[6-(naphthalen-2-yl)-4-oxo-4,5-dihydropyrazolo[1,5-a]pyrazin-2-yl]carbonyl}-amino)azetidine-1-carboxylate]	2.7
COc1ccc2c(c1)C(NC(=O)c1nn3cc(-c4cnc5cccc(C)c5c4)[nH]c(=O)c3c1C(C)C)CC(C)(C)O2 (stereo not shown) [Example 4-74, 3-Isopropyl-N-(6-methoxy-2,2-dimethyl-3,4-dihydro-2H-chromen-4-yl)-6-(5-methylquinolin-3-yl)-4-oxo-4,5-dihydropyrazolo[1,5-a]pyrazine-2-carboxamide]	6.05
O=C(NCc1cc(F)cc(F)c1)c1cc2c(=O)[nH]c(-c3ccc4ccccc4c3)cn2n1 [Example 2-31, N-(3,5-Difluorbenzyl)-6-(2-naphthyl)-4-oxo-4,5-dihydropyrazolo[1,5-a]pyrazine-2-carboxamide]	2.55
Cc1c(C(=O)NC(C)c2ccccn2)nn2c(C)c(-c3ccc4ccccc4c3)[nH]c(=O)c12 (stereo not shown) [Example 3-17, 3,7-Dimethyl-6-(2-naphthyl)-4-oxo-N-[1-(2-pyridyl)ethyl]-5H-pyrazolo[1,5-a]pyrazine-2-carboxamide]	1.8
O=C(NCCc1ccccc1F)c1cc2c(=O)[nH]c(-c3ccc4ccccc4c3)cn2n1 [Example 2-9, N-[2-(2-Fluorophenyl)ethyl]-6-(2-naphthyl)-4-oxo-4,5-dihydropyrazolo[1,5-a]pyrazine-2-carboxamide]	3.65
CN1CC(NC(=O)c2nn3cc(-c4ccc5ccccc5c4)[nH]c(=O)c3c2C(F)(F)F)(c2ccc(F)cc2)C1 [Example 1-31, N-[3-(4-Fluorophenyl)-1-methylazetidin-3-yl]-6-(naphthalen-2-yl)-4-oxo-3-(trifluoromethyl)-5H-pyrazolo[1,5-a]pyrazine-2-carboxamide trifluoroacetic acid salt]	1.84
CC(NC(=O)c1nn2cc(-c3ccc4ccccc4c3)[nH]c(=O)c2c1C#N)c1ccc(F)cc1 (stereo not shown) [Example 3-52, 3-Cyano-N-[1-(4-fluorophenyl)ethyl]-6-(2-naphthyl)-4-oxo-5H-pyrazolo[1,5-a]pyrazine-2-carboxamide]	2.25
COc1ccc(C(C)NC(=O)c2nn3cc(-c4cnc5cccc(C)c5c4)[nH]c(=O)c3c2C(C)C)cc1F (stereo not shown) [Example 4-71, N-[1-(3-Fluoro-4-methoxyphenyl)ethyl]-3-isopropyl-6-(5-methyl-3-quinolyl)-4-oxo-5H-pyrazolo[1,5-a]pyrazine-2-carboxamide]	2.4
C[C@H](NC(=O)c1cc2c(=O)[nH]c(-c3ccc4ccccc4c3)cn2n1)c1ccccc1 [Example 2-34, 6-(2-Naphthyl)-4-oxo-N-[(7S)-1-phenylethyl]-4,5-dihydropyrazolo[1,5-a]pyrazine-2-carboxamide]	1.9
COc1ccc2c(c1)CCCC2NC(=O)c1nn2cc(-c3cnc4cccc(C)c4c3)[nH]c(=O)c2c1C(C)C (stereo not shown) [Example 4-64, 3-Isopropyl-N-(6-methoxy-1,2,3,4-tetrahydronaphthalen-1-yl)-6-(5-methylquinolin-3-yl)-4-oxo-4,5-dihydropyrazolo[1,5-a]pyrazine-2-carboxamide]	2.55
Cc1c(C(=O)NC(CCO)c2ccccc2Cl)nn2c(C)c(-c3ccc4ccccc4c3)[nH]c(=O)c12 (stereo not shown) [Example 3-68, N-[1-(2-Chlorophenyl)-3-hydroxypropyl]-3,7-dimethyl-6-(2-naphthyl)-4-oxo-5H-pyrazolo[1,5-a]pyrazine-2-carboxamide]	1.85
CC(C)c1c(C(=O)N[C@H](C)c2ccc(F)cc2)nn2cc(-c3ccc4ccccc4c3)[nH]c(=O)c12 [Example 1-8, N-[(1R)-1-(4-Fluorophenyl)ethyl]-6-(naphthalen-2-yl)-4-oxo-3-(propan-2-yl)-4,5-dihydropyrazolo-[1,5-a]pyrazine-2-carboxamide]	1.36
Cc1c(C(=O)NC(C)CC2CC2)nn2c(C)c(-c3ccc4ccccc4c3)[nH]c(=O)c12 (stereo not shown) [Example 3-10, N-(1-Cyclopropylpropan-2-yl)-3,7-dimethyl-6-(2-naphthyl)-4-oxo-4,5-dihydropyrazolo[1,5-a]pyrazine-2-carboxamide]	2.75

Continued, values first:

IC50 [nM]	SMILES
6.65	Cc1ccc(-c2cn3nc(C(=O)NC(C(C)(C)O)C(F)(F)F)c(C4CC4)c3c(=O)[nH]2)cc1F (racemic) [6-394]
2.7	Cc1ccc(-c2cn3nc(C(=O)N[C@@H](c4ccc(F)cc4)C(C)(C)O)c(C4CCC4)c3c(=O)[nH]2)cc1C [6-577]
0.44	Cc1cc(-c2cn3nc(C(=O)N[C@@H](c4ccc(F)cc4)C(F)(F)CO)c(C(F)(F)C(F)(F)F)c3c(=O)[nH]2)ccc1Cl [6-477]
0.97	Cc1ccc(-c2cn3nc(C(=O)NC(C)(C)C4CC4)c(C(F)(F)F)c3c(=O)[nH]2)cc1Cl [6-191]
5.35	Cc1ccc(-c2cn3nc(C(=O)N[C@H]4CCOC4)c(C(F)(F)F)c3c(=O)[nH]2)cc1Cl [6-186]
8.05	Cc1ccc(-c2cn3nc(C(=O)NC(CN(C)C)c4ccc(F)cc4)c(C4CC4)c3c(=O)[nH]2)cc1C (single isomer, unassigned) [6-446]
2.55	COC[C@@H](NC(=O)c1nn2cc(-c3ccc(C(F)(F)F)c(C)c3)[nH]c(=O)c2c1C1CC1)c1ccccc1 [6-135]
1.65	O=C(N[C@H](CN1CC(F)(F)C1)c1ccccc1)c1cc2c(=O)[nH]c(-c3ccc4ccccc4c3)cn2n1 [6-544]
3.3	C[C@@H](NC(=O)c1nn2cc(-c3cc(F)c(Cl)c(F)c3)[nH]c(=O)c2c1C1CC1)C1CC1 [6-473]
1.7	Cc1cc(-c2cn3nc(C(=O)N[C@@H](c4ccc(F)cc4)C(C)(C)O)c(C4CC4(F)F)c3c(=O)[nH]2)ccc1Cl (stereo partly shown) [6-551]
0.77	Cc1ccc(-c2cn3nc(C(=O)NCC(O)C(F)(F)F)c(C4CC4)c3c(=O)[nH]2)cc1C (single isomer, unassigned) [6-437]
6.45	Cc1ccc(-c2cn3nc(C(=O)NC4(c5ccc(F)cc5)CCN(C)C4)cc3c(=O)[nH]2)cc1C (single isomer, unassigned) [6-364]
1.05	CC(C)(O)[C@@H](NC(=O)c1nn2cc(-c3ccc(Cl)c(Cl)c3)[nH]c(=O)c2c1C1CCC1)c1ccc(F)cc1 [6-568]
2.23	O=C(N[C@@H]1CCN(CC(F)(F)F)C1)c1nn2cc(-c3ccc4ccccc4c3)[nH]c(=O)c2c1C(F)(F)F (racemic) [6-521]
1.18	Cc1cc(-c2cn3nc(C(=O)NC(C)(C)C4CC4)c(C(F)(F)F)c3c(=O)[nH]2)ccc1Cl [6-220]
1.3	C[C@H](NC(=O)c1nn2cc(-c3ccc(Cl)c(F)c3)[nH]c(=O)c2c1C1CCC1)C1CC1 [6-570]
5.6	Cc1ccc(-c2cn3nc(C(=O)NC(C)C4CC4)c(C(F)(F)F)c3c(=O)[nH]2)cc1F (racemic) [6-147]
1.6	Cc1ccc(-c2cn3nc(C(=O)NC(c4ccc(F)cc4)C4(O)CC4)c(C4CC4)c3c(=O)[nH]2)cc1F (single isomer, unassigned) [6-383]
0.52	O=C(N[C@H](CCO)c1ccc(F)cc1)c1nn2cc(-c3ccc(Cl)c(Cl)c3)[nH]c(=O)c2c1C1CC1 [6-425]
0.82	Cc1ccc(-c2cn3nc(C(=O)NCC(O)C(F)(F)F)c(C4CC4)c3c(=O)[nH]2)cc1Cl (racemic) [6-258]
5.18	Cc1ccc(-c2cn3nc(C(=O)NCC(O)C(F)(F)F)c(C)c3c(=O)[nH]2)cc1F (single isomer, unassigned) [6-410]
